Values of other authors in patent EP2033945A1, “Quaternary ammonium salts” (Infineum International Limited, priority 2007, dated 2009).

Settings: first dissociation constant where the acid is polybasic; from CRC Handbook of Chemistry and Physics, 68th edition, page D161

Structure (SMILES) | pKa
O=C(O)c1c(O)cc(O)cc1O [2,4,6-trihydroxybenzoic acid] | 1.7
O=C(O)c1ccccc1C(=O)O [phthalic acid] | 2.9
